{"source": "paper PMC12267067", "about": "“Targeting GRPR for sex hormone-dependent cancer after loss of E-cadherin” (Nature, 2025)", "key": {"[1]": {"system": "mouse melanoma cell lines (1057, 1064, 1181, 1039, 1456, 1014)", "assay": "Matrigel invasion assay, mouse melanoma cells", "assay_type": "cell-based", "details": "24 h", "procedure": "Matrigel invasion assays were done in transwell plates with 8.0-µm pores (353097, Falcon) coated with 100 µl of 200 µg ml^−1 Matrigel. Depending on the experiments, cells were seeded directly or 24 h after transfection in low-serum medium (0.5% FCS for murine cells and 1% for human cell lines) with 10 nM GRP, 1 µM RC-3095, and/or 1 µM IC 182,780, or in 10% FCS. Then, 24 hours after stimulation, inserts were washed with PBS and non-invading cells were removed. Cells in the inserts were fixed in methanol at −20 °C overnight. The inserts were rinsed and the membrane carefully removed using a sharp scalpel. The membrane was mounted in prolong glass DAPI (1.5 µg ml^−1). Assays were performed in triplicate and automatic counting of invading cells was done using an Image/Fiji macro (10.5281/zenodo.14509394). Sequences of siRNAs are given in Supplementary Table 11."}, "[2]": {"system": "YAP1 activation signature", "assay": "YAP1 activation signature (GSEA) and YAP1 score by RNA-seq, human melanoma cell lines", "assay_type": "cell-based", "details": "4 h, 10 nM GRP", "procedure": "The transcriptome, copy-number alteration, mutations and corresponding clinical data of the TCGA–SKCM (n = 473), TCGA–BRCA (n = 1,215), TCGA–STAD (n = 450), TCGA–LUSC (n = 553) and TCGA–KIRC (n = 606) datasets were retrieved from the National Cancer Institute Genomic Data Commons repository using the TCGAbiolinks R package in August 2022 (ref. [51]). The mRNA levels were calculated from RNA-sequencing read counts using RNA-Seq V2 RSEM and normalized to TPM. Expression of CDH1, CCND1, BRAF and KRAS was modelled over time using LOWESS smoothing with 1,860 points. Expression levels from acral melanoma were retrieved from GEO under accession number GSE162682. Survival analyses were carried out by separating the cohort into two groups according to gene expression. The threshold was set to 1 TPM, commonly considered to be the limit for sufficient protein expression of the transcript. The negative group was set to an expression 0.1 TPM or less to have clear separation in terms of expression (factor 10) from the positive group. […] The scoring of YAP1 activation was determined from the expression of CYR61, CTGF, TEAD4, LATS2 and CRIM1. […] The anoikis-resistance score was calculated on the basis of the expression of S100A7A, MTPN, ATP10B, S100A8, RSAD2, RENBP, CDHR1 and CD36. The ER-activation score was calculated according to the expressions of GATA4, SDK2, EGR3, IL19, GSG1L, RSPO1, PGR, IL24 and PDZK1. […]\nRNA was extracted from cells and mouse tumours using the miRNeasy kit (Qiagen, 217004), according to the manufacturer’s protocol. RNA integrity (RIN) was measured using an Agilent Bioanalyser 2100 (Agilent Technologies) and an RNA nano 6000 kit (5067-1511, Agilent Technologies). […] RNA concentrations were measured using a NanoDrop (NanoDrop Technologies). […] The libraries were equimolarly pooled and subjected to qPCR quantification using the KAPA library quantification kit (Roche). […] Reads were mapped to the mm10 mouse reference genome (gencode m13 version-GRCm38.p5) or hg38 human reference genome (gencode 42 version-GRCh38.p13) using STAR[60]. […]"}, "[3]": {"system": "serine/threonine kinases in 1057 cells", "assay": "Kinase assay (PamGene STK PamChip)", "assay_type": "cell-based, mouse", "details": "10 nM GRP, 15 min", "procedure": "Serine/threonine and tyrosine kinase activity were determined using STK PamChips (87102 PamGene International). All assays were done according to the manufacturer’s protocol. In brief, cells were seeded to 70% confluence and starved overnight the day after. Then, the medium was replaced by medium containing vehicle (0.1% DMSO) or 10 nM GRP and/or 1 µM RC and the cells incubated for 15 min. Cells were rinsed twice in PBS and then lysed in M-Per buffer (78503, ThermoFisher Scientific) containing Halt Phosphatase Inhibitor (78428, ThermoFisher Scientific) and Halt Protease Inhibitor (78437, ThermoFisher Scientific), both diluted 1:100. The lysates were immediately snap-frozen. Kinase activity was determined using Pamstation PS12 and 1 µg protein for the STK chips, according to the manufacturer’s protocol. The data were analysed using BioNavigator software (PamGene International), batch corrected using ComBat[71] and normalized using VSN[72]. Kinase activity was assessed using the 2018 version of the UKA tool using basic parameters (Scan rank from 4 to 12, 500 permutations, 90% homology, equivalent weight for each database, minimal prediction score of 300). The UKA tool infers the active kinase from the differentially phosphorylated peptides using databases and predicted interactions (PhosphoNet database)."}}, "note": "No end group written: not given here."}
{"substance": "GRP: GRPR's natural agonist, endogenous ligand of GRPR (4011670 bachem) (VPLPAGGGTVLTKMYPRGNHWAVGHLM; not fully specified; ends and bridges not checked; UniProt P07492 24-50, looked up)", "values": [{"measurement": "invasion (number of invading cells), GRPR-positive mouse lines", "setting": "[1]; 1057 (also 1064, GRPR-transduced 1014 and 1181 for RC-3095), 10 nM GRP, 1 µM RC-3095 and/or 1 µM ICI, Matrigel 200 µg ml−1, 0.5% FCS", "value": "promoted invasion"}, {"measurement": "invasion (number of invading cells), Grpr-negative mouse lines", "setting": "[1]; 1181 male Ecad, 1039 female Ecad, 1456 male ΔEcad, 10 nM GRP and/or 1 µM ICI", "value": "but not in Ecad-positive (1181 male and 1039 female) or Ecad-negative male (1456) cells"}, {"measurement": "GSEA YAP activation, GRP vs. Mock: NES", "setting": "[2]; 501mel-GRPR, FDR <0.0001", "value": 2.07}, {"measurement": "GSEA YAP activation, GRP vs. Mock: NES", "setting": "[2]; Dauv-1, FDR <0.0001", "value": 2.21}, {"measurement": "GSEA YAP activation, GRP vs. Mock: NES", "setting": "[2]; MDA-MB-435S, FDR =0.0408", "value": 1.32}, {"measurement": "kinases activated following GRPR activation", "setting": "[3]", "value": "primarily triggered protein kinase C (PKC) and, to a lesser extent, PKAα and PRKX"}]}
